Data reported in patent publication US7812165B2, “6-substituted pyridoindolone derivatives, production and therapeutic use thereof” (sanofi-aventis, priority 2004, dated 2010).

melting point: 295 °C
Compound: CCON=Cc1ccc2[nH]c3c(cc(-c4ccc(OC)cc4OC)c(=O)n3C)c2c1 [Compound 7, 3-(2,4-Dimethoxyphenyl)-1-methyl-2-oxo-2,9-dihydro-1H-pyrido[2,3-b]indole-6-carbaldehyde O-ethyloxime]
